Each molecule was assayed against T1, human MDM2 protein (amino acids 2-188) (Homo sapiens (Human), UniProt Q00987) (assay: TR-FRET p53-MDM2 Assay 1). Conditions: 1.25 nM MDM2-biotinylated, 10 nM Cy5-p53 peptide.
T1 sequence (Q00987 2-188): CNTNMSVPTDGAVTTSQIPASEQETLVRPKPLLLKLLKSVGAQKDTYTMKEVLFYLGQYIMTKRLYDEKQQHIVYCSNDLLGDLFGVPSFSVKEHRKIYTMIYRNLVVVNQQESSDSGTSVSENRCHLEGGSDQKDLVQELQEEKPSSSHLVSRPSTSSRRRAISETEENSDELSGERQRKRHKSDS
Assay type: binding
Procedure: (§1) Time Resolved Fluorescence Energy Transfer (TR-FRET) Assay
(§2) The inhibition of p53-MDM2 and p53-MDM4 interactions is measured by time resolved fluorescence energy transfer (TR-FRET). Fluorescence energy transfer (or Foerster resonance energy transfer) describes an energy transfer between donor and acceptor fluorescent molecules. For this assay, human MDM2 protein (amino acids 2-188) and human MDM4 protein (amino acids 2-185), tagged with a C-terminal biotin moiety, are used in combination with a Europium labeled streptavidin (Perkin Elmer, Inc., Waltham, Mass., USA) serving as the donor fluorophore. The p53 derived, Cy5 labeled peptide Cy5-TFSDLWKLL (p53 aa18-26) is the energy acceptor. Upon excitation of the donor molecule at 340 nm, binding interaction between MDM2 or MDM4 and the p53 peptide induces energy transfer and enhanced response at the acceptor emission wavelength at 665 nm.
(§3) Disruption of the formation of the p53-MDM2 or p53-MDM4 complex due to an inhibitor molecule binding to the p53 binding site of MDM2 or MDM4 results in increased donor emission at 620 nm. The ratiometric FRET assay readout is calculated from the raw data of the two distinct fluorescence signals measured in time resolved mode (fluorescence 665 nm/fluorescence 620 nm×1000).
(§4) The test is performed in white 384-well plates (Greiner Bio-One, reference 781207) in a total volume of 60 μL by adding 1 μL of compounds tested at different concentrations diluted in 100% DMSO (1.7% final DMSO concentration) in reaction buffer (PBS, 125 mM NaCl, 0.001% Novexin (consists of carbohydrate polymers), designed to increase the solubility and stability of proteins; Expedeon Ltd., Cambridgeshire, United Kingdom), 0.01% Gelatin, 0.01% 0.2%, Pluronic F-127 (block copolymer from ethylenoxide and propyleneoxide), 1 mM DTT). After addition of 1.25 nM MDM2-biotinylated or 2.5 nM MDM4-biotinylated (internal preparations, both MDM2 and MDM4 are biotinylated at the C-terminal of the peptide construct), and 0.625 nM Europium labeled streptavidin (Perkin Elmer), the solution is pre-incubated for 15 minutes at room temperature, then 10 nM Cy5-p53 peptide (internal preparation, the Cy5 dye is directly bound to the N-terminal part of p53 peptide construct) is added before an incubation at room temperature for 15 minutes prior to reading the plate. For measurement of samples, a Victor II microplate reader (Perkin Elmer) is used with the following settings: Excitation 340 nm, Emission Donor 620 nm and Emission Acceptor 665 nm. IC50 values are calculated by curve fitting using XLfit. If not specified, reagents are purchased from Sigma-Aldrich Chemie GmBH, Buchs, Switzerland.
(§5) This assay was used to evaluate compounds displaying inhibition of p53-MDM2 interaction and p53-MDM4 interaction at IC50s of 0.005 to 50 μM (p53-MDM2 Assay 1 and p53-MDM4 Assay 1, respectively). For selected compounds displaying IC50s between […] on MDM2, a slightly modified assay is used with the following adaptations: 0.1 nM MDM2, 0.1 nM Europium labeled streptavidin and Tecan genios Pro is used as a microplate reader for the fluorescence measurements (p53-MDM2 Assay 2).
Work on `COc1ccccc1-c1nc2c(n1C(C)C)C(c1ccc(Cl)cc1C)N(c1cc(Cl)ccc1C)C(=O)N2` (stereo not shown) [Example 3, 6-(4-Chloro-2-methylphenyl)-1-(5-chloro-2-methylphenyl)-7-isopropyl-8-(2-methoxyphenyl)-6,7-dihydro-1H-purin-2(3H)-one] yielded an IC50 of 0.0018 µM. `COc1ccncc1-c1nc2c(n1C(C)C)C(c1ccc(Cl)cc1)N(c1cccc(Cl)c1F)C(=O)N2` (stereo not shown) [Example 6, 1-(3-Chloro-2-fluorophenyl)-6-(4-chlorophenyl)-7-isopropyl-8-(4-methoxypyridin-3-yl)-6,7-dihydro-1H-purin-2(3H)-one] gave an IC50 of 0.0085 µM. Molecule `CC(C)n1c(Br)nc2c1C(c1ccc(Cl)cc1)N(c1cccc(Cl)c1F)C(=O)N2` (stereo not shown) [Example 5, 8-Bromo-1-(3-chloro-2-fluorophenyl)-6-(4-chlorophenyl)-7-isopropyl-6,7-dihydro-1H-purin-2(3H)-one] has an IC50 of 0.12 µM.

The molecules below were run against T1, human MDM2 protein (amino acids 2-188) (assay: TR-FRET p53-MDM2 Assay 2 (modified: 0.1 nM MDM2)). Conditions: 0.1 nM MDM2, 0.1 nM Europium labeled streptavidin, Tecan genios Pro reader.
Assay type: binding
Procedure: as §1, §2, §3, §4, §5
`COc1ccc(C#N)cc1-c1nc2c(n1C(C)C)C(c1ccc(Cl)cc1C)N(c1cc(Cl)ccc1C)C(=O)N2` (stereo not shown) [Example 12, 3-[1-(5-Chloro-2-methyl-phenyl)-6-(4-chloro-2-methyl-phenyl)-7-isopropyl-2-oxo-2,3,6,7-tetrahydro-1H-purin-8-yl]-4-methoxy-benzonitrile] gave an IC50 of 0.414 nM. `COc1ncc(-c2nc3c(n2C(C)C)C(c2ccc(Cl)c(F)c2)N(c2cc(Cl)c[nH]c2=O)C(=O)N3)c(OC)n1` (stereo not shown) [Example 25, 1-(5-Chloro-2-oxo-1,2-dihydropyridin-3-yl)-6-(4-chloro-3-fluorophenyl)-8-(2,4-dimethoxypyrimidin-5-yl)-7-isopropyl-6,7-dihydro-1H-purin-2(3H)-one] showed an IC50 of 0.356 nM. `COc1nc(N(C)C)ncc1-c1nc2c(n1C(C)C)C(c1ccc(Cl)cc1)N(c1cc(Cl)cn(C)c1=O)C(=O)N2` (stereo not shown) [Example 22, 1-(5-Chloro-1-methyl-2-oxo-1,2-dihydropyridin-3-yl)-6-(4-chlorophenyl)-8-(2-(dimethylamino)-4-methoxypyrimidin-5-yl)-7-isopropyl-6,7-dihydro-1H-purin-2(3H)-one] gave an IC50 of 0.587 nM. `COc1nc(N(C)C)ncc1-c1nc2c(n1C(C)C)C(c1ccc(Cl)c(F)c1)N(c1ccc(F)c(Cl)c1)C(=O)N2` (stereo not shown) [Example 23, 6-(4-Chloro-3-fluorophenyl)-1-(3-chloro-4-fluorophenyl)-8-(2-(dimethylamino)-4-methoxypyrimidin-5-yl)-7-isopropyl-6,7-dihydro-1H-purin-2(3H)-one] gave an IC50 of 0.385 nM. For `COc1ncc(-c2nc3c(n2C(C)C)C(c2ccc(Cl)c(F)c2)N(c2cc(Cl)cn(C)c2=O)C(=O)N3)c(OC)n1` (stereo not shown) [Example 17, 1-(5-Chloro-1-methyl-2-oxo-1,2-dihydropyridin-3-yl)-6-(4-chloro-3-fluorophenyl)-8-(2,4-dimethoxypyrimidin-5-yl)-7-isopropyl-6,7-dihydro-1H-purin-2(3H)-one], the IC50 was 1.67 nM. `CNC(=O)c1ccc(OC)c(-c2nc3c(n2C(C)C)C(c2ccc(Cl)cc2C)N(c2cc(Cl)ccc2C)C(=O)N3)c1` (stereo not shown) [Example 9, 3-[1-(5-Chloro-2-methyl-phenyl)-6-(4-chloro-2-methyl-phenyl)-7-isopropyl-2-oxo-2,3,6,7-tetrahydro-1H-purin-8-yl]-4-methoxy-N-methyl-benzamide] showed an IC50 of 0.21 nM. Work on `COc1ncc(-c2nc3c(n2C(C)C)C(c2ccc(Cl)c(F)c2)N(c2ccc(F)c(Cl)c2)C(=O)N3)c(OC)n1` (stereo not shown) [Example 15, 6-(4-Chloro-3-fluorophenyl)-1-(3-chloro-4-fluorophenyl)-8-(2,4-dimethoxypyrimidin-5-yl)-7-isopropyl-6,7-dihydro-1H-purin-2(3H)-one] yielded an IC50 of 0.451 nM. For `COc1nc(N(C)C)ncc1-c1nc2c(n1C(C)C)C(c1ccc(Cl)c(F)c1)N(c1cc(Cl)cn(C)c1=O)C(=O)N2` (stereo not shown) [Example 24, 1-(5-Chloro-1-methyl-2-oxo-1,2-dihydropyridin-3-yl)-6-(4-chloro-3-fluorophenyl)-8-(2-(dimethylamino)-4-methoxypyrimidin-5-yl)-7-isopropyl-6,7-dihydro-1H-purin-2(3H)-one], the IC50 was 0.748 nM.

The molecules below were run against human MDM4 protein (amino acids 2-185) (Homo sapiens (Human), UniProt O15151) (assay: TR-FRET p53-MDM4 Assay 1). Conditions: 2.5 nM MDM4-biotinylated, 10 nM Cy5-p53 peptide.
Sequence of human MDM4 protein (amino acids 2-185) (O15151 2-185): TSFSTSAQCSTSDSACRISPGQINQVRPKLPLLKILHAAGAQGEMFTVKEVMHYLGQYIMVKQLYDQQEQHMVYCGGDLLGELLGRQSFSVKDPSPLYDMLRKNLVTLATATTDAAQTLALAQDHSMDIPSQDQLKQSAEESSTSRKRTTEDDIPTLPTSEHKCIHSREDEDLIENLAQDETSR
Assay type: binding
Procedure: as §1, §2, §3, §4, §5
`COc1ccccc1-c1nc2c(n1C(C)C)C(c1ccc(Cl)cc1C)N(c1cc(Cl)ccc1C)C(=O)N2` (stereo not shown) [Example 3, 6-(4-Chloro-2-methylphenyl)-1-(5-chloro-2-methylphenyl)-7-isopropyl-8-(2-methoxyphenyl)-6,7-dihydro-1H-purin-2(3H)-one] gave an IC50 of 1.45 µM. `COc1ccncc1-c1nc2c(n1C(C)C)C(c1ccc(Cl)cc1)N(c1cccc(Cl)c1F)C(=O)N2` (stereo not shown) [Example 6, 1-(3-Chloro-2-fluorophenyl)-6-(4-chlorophenyl)-7-isopropyl-8-(4-methoxypyridin-3-yl)-6,7-dihydro-1H-purin-2(3H)-one] gave an IC50 of 14 µM.
